One substance from US20020044948A1, “Methods and compositions for co-stimulation of immunological responses to peptide antigens” (priority 2000, published 2002) can be followed below.

This experiment relates to E7 peptide-pulsed EL4 cells. Kind of experiment: Cytotoxic lymphocyte (4-hour 51Cr-release) assay on spleen cells of immunized mice. The experiment is classed as in vivo, C57BL/6 mice. The settings on record: C57BL/6 (B6) (H-2b) mice. On the procedure: A peptide antigen formulation for use within the present example was prepared in an emulsion by a two-syringe system containing 1:1 incomplete Freund's Adjuvant with 100 μg HPV16 E7 peptide (49-57), 20 μg PCLUS-6.1 helper epitope (see, U.S. Pat. No. 5,939,074; U.S. Pat. No. 5,976,541; U.S. Pat. No. 5,030,449; U.S. Pat. No. 5,081,226; U.S. Pat. No. 5,932,218; U.S. patent application Ser. No. 08/060988, filed May 14, 1993, corresponding to EP 0 710 572 Bi; WO 94/26785; and
U.S. patent application Ser. No. 09/455,076, each incorporated herein by reference), 50,000 U IL-2, 10X PBS and double distilled water. The B7-1 expressing DNA plasmid (400 μg) was prepared in 100 μl water. […]
Procedures to measure CTL activity are well known and are described elsewhere (see, e.g. Chen et al., Cell 71:1093-1102, 1992). […] Supernatants were harvested and counted using a gamma counter. The percentage of specific 51 Cr-release was calculated as follows: 100 X (experimental release−spontaneous release)/(maximum release−spontaneous release). Spontaneous release was determined from target cells incubated without effector cells; maximum release was determined from target cells incubated in the presence of 1% Triton X-100.

“HPV16 E7 peptide(49-57): H2Db binding antigenic peptide of human papilloma virus 16 E7 protein, residues 49-57 (RAHYNIVTF; UniProt P03129 49-57, looked up, fragment)”: the “Immunogenicity of the peptide (in words)” value is recorded as “immunogenic”.
